In US7709645B2, “Pyrrolo-pyridine kinase modulators” (SGX Pharmaceuticals, Inc., priority 2004, dated 2010) one finds IC50 data, which are given here for 22 compounds.

The target of this assay is T1, Abl T315I kinase domain (unphosphorylated) (Mus musculus, UniProt P00520, T315I).
T1 construct: purified and unphosphorylated T315I Abl kinase domain; made in house; host or cells: E. coli BL21(DE3) strains
T1 sequence (P00520 242-493 T315I limits assumed): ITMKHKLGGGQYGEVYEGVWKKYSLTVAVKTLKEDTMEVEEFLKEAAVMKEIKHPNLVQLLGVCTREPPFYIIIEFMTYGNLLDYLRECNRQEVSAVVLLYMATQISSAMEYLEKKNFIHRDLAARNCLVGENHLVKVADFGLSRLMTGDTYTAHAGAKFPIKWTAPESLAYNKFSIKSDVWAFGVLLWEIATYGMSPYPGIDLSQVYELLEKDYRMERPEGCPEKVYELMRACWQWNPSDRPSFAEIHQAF
Kind of assay: Abl_T315I Bioassay (c-Abl PK/LDH coupled enzyme assay). It counts as biochemical. The settings on record: 10 μM ATP. The source says: Although the first of these examples uses the kinase domain of a mutant form of Abl T315I (“Abl T315I KD”), the kinase assays may use various forms of mutant and wild type enzymes, including, for example, the entire protein, the kinase domain, or a portion thereof (e.g. Abl Y393F). The kinases used in the assays may also be of varying phosphorylation states. In the c-Abl example, a mutant kinase at a zero phosphorylation state was used.
In the c-Abl Pyruvate Kinase (PK)/Lactate Dehydrogenase (LDH) Coupled Assay the protein kinase dependant phosphorylation of a substrate peptide was coupled to the oxidation of NADH. The oxidation of NADH to NAD+ was detected by monitoring a decrease in absorbance at 340 nm.
Materials: Abl substrate peptide=EAIYAAPFAKKK (SEQ ID NO:1)-OH (Biopeptide, San Diego, Calif.); βNADH (Sigma Cat#N-8129, FW=709.4); 2M MgCl2; 1M HEPES buffer, pH 7.5; Phosphoenolpyruvate (PEP) (Sigma Cat#P-7002, FW=234); Lactate dehydrogenase (LDH) (Worthington Biochemical Cat#2756); Pyruvate Kinase (PK) (Sigma Cat#P-9136); ATP (Sigma Cat#A-3377, FW=551); Greiner 384-well UV star plate; and purified and unphosphorylated T315I Abl kinase domain.
Stock Solutions: 10 mM NADH (7.09 mg/ml in miliQH2O) made fresh daily; 10 mM Abl substrate peptide (13.4 mg/ml in miliQH2O) stored at −20° C.; 100 mM HEPES buffer, pH 7.5 (5 ml 1M stock+45 ml miliQH2O); 100 mM MgCl2 (5 ml 2M MgCl2+95 ml dH2O); 100 mM PEP (23.4 mg/ml in dH2O) stored at −20° C.; 10 mM ATP (5.51 mg/ml in dH2O) stored at −20° C. (diluted 50 μl into total of 10 ml miliQH2O daily=50 μM ATP working stock); 1000 U/ml PK (U/mg varies with lot) flash-frozen under liquid N2 and stored at −80° C.; and 1000 U/ml LDH (U/mg varies with lot) flash-frozen under liquid N2 and stored at −80° C.
Standard Assay Setup for 384-well format (50 μl reaction): 300 μM NADH; 10 mM MgCl2; 2 mM PEP; 45 U/ml PK; 60 U/ml LDH; 200 μM Abl substrate peptide; 2.5 μl test compound (in DMSO); 2 μg/ml Abl kinase domain; 10 μM ATP; 100 mM HEPES buffer. Positive controls contained DMSO with no test compound. Negative controls contained 5 μl of 0.5M EDTA (50 mM in the assay). The dephosphorylated form of the c-Abl T315I mutant was used in the biochemical screening assays. The kinase reaction was initiated at time t=0 by the addition of ATP.
Activity was measured by following the time-dependent loss of NADH by absorbance spectroscopy at 340 nm. The linear portion of the resulting progress curve was then analyzed by linear regression to get the activity in absorbance units/time, reported as the slope of that best fit line (moles/unit time can be calculated from using molar extinction coefficient for NADH at 340 nm, 6250M^−1 cm^−1).
Data was evaluated using the equation: Z′=1−[3*(σ++σ−)/|μ+−μ−|](Zhang, et al., 1999 J Biomol Screening 4(2) 67-73), where μ denotes the mean and σ the standard deviation. The subscript designates positive or negative controls. The Z′ score for a robust screening assay should be ≧0.50. The typical threshold=μ+−3*σ+. Any value that falls below the threshold was designated a “hit”.
Dose response was analyzed using the equation: y=min+{(max−min)/(1+10^[compound]−logIC50)}, where y is the observed initial slope, max=the slope in the absence of inhibitor, min=the slope at infinite inhibitor, and the IC50 is the [compound] that corresponds to ½ the total observed amplitude (Amplitude=max−min).
To measure modulation, activation, or inhibition of Abl KD, a test compound was added to the assay at a range of concentrations. Inhibitors may inhibit Abl KD activity at an IC50 in the micromolar range, the nanomolar range, or, for example, in the subnanomolar range.
An open-reading frame for c-Abl was amplified from a Mus musculus (mouse) cDNA library prepared from freshly harvested mouse liver using a commercially available kit (Invitrogen) by PCR using the following primers: […]
The c-Abl T315I KD (kinase domain) was purified as follows. […]
As usually defined, the IC50 is the midpoint of a concentration-inhibition curve. Compound `CNC(=O)c1cncc(-c2cnc3[nH]cc(-c4ccccc4OC)c3c2)c1` [AE1] gave a half-inhibitory concentration (IC50) below 50 nM.
Under `CNC(=O)c1cc(-c2cnc3[nH]cc(-c4ccccc4OC)c3c2)cs1` [AE2] stands below 50 nM; under `COc1ccccc1-c1c[nH]c2ncc(-c3csc(C(=O)N(C)C)c3)cc12` [AE3], below 50 nM; under `COc1ccccc1-c1c[nH]c2ncc(-c3ccc(CN(C)C)cc3)cc12` [AE8], below 50 nM.
On to `COc1ccccc1-c1c[nH]c2ncc(-c3cc[nH]c(=O)c3)cc12` [AE9], for which the IC50 is below 50 nM.
In turn, `COc1ccccc1-c1c[nH]c2ncc(-c3ccc4[nH]cc(CC(=O)O)c4c3)cc12` [AE10] had an IC50 below 50 nM.
Under `COc1ccccc1-c1c[nH]c2ncc(-c3ccc(S(N)(=O)=O)s3)cc12` [AE11] stands below 50 nM; under `COc1ccccc1-c1c[nH]c2ncc(-c3cccc(S(C)(=O)=O)c3)cc12` [AE13], below 50 nM; under `O=C(c1cncc(-c2cnc3[nH]cc(-c4ccc5cc[nH]c5c4)c3c2)c1)N1CCOCC1` [AE14], below 50 nM.
Under `N#Cc1cc(-c2cnc3[nH]cc(-c4ccc5[nH]ccc5c4)c3c2)ccc1O` [AE20] stands below 50 nM.
With `COc1ccccc1-c1c[nH]c2ncc(-c3ccc(S(N)(=O)=O)cc3)cc12` [AE21] the figure was below 50 nM; with `c1cc2cc(-c3c[nH]c4ncc(-c5ccc6[nH]cnc6c5)cc34)ccc2[nH]1` [AE22], below 50 nM.
`COc1ccccc1-c1c[nH]c2ncc(-c3ccc(O)c(CN4CCCN(C)CC4)c3)cc12` [AE41] registered a 50% inhibitory concentration (IC50) below 50 nM.
Compound `COc1ccccc1-c1c[nH]c2ncc(-c3cccc(C(=N)N4CCCCC4)c3)cc12` [AE42] returned an IC50 below 50 nM.
Under `Oc1cccc(-c2cnc3[nH]cc(-c4ccc(O)c(F)c4)c3c2)c1` [AE48] stands below 50 nM; under `Oc1cccc(-c2cnc3[nH]cc(-c4ccn[nH]4)c3c2)c1` [AE49], below 50 nM.
With `Nc1nc(-c2c[nH]c3ncc(-c4ccc5[nH]ccc5c4)cc23)cs1` [AE55] the figure was below 50 nM.
Under `COc1cc(-c2cnc3[nH]cc(-c4ccc(O)cc4)c3c2)ccc1O` [AE58] stands below 50 nM.
In the case of `COc1cc(-c2cnc3[nH]cc(-c4ccccc4OC)c3c2)ccc1O` [AE64], the IC50 is below 50 nM.
Take `COc1cc(-c2cnc3[nH]cc(-c4ccccc4OC)c3c2)ccc1OCCN1CCCC1` [AE65]: the IC50 was below 50 nM.
Under `COc1ccccc1-c1c[nH]c2ncc(-c3ccc[nH]3)cc12` [AE67] stands below 50 nM; under `COCCOc1ccc(-c2cnc3[nH]cc(-c4ccccc4OC)c3c2)cc1OCCOC` [AE68], below 50 nM.
